Laboratory results reported in US8859611B2, “Thiophene inhibitors of S-nitrosoglutathione reductase” (N30 Pharmaceuticals, Inc., priority 2009, dated 2014).

These molecules were tested against T1, GSNOR (Homo sapiens, UniProt P11766) (assay: GSNOR assay (in vitro inhibition of GSNOR activity, NADH absorbance at 340 nm)). Conditions: 100 mM NaPO4 pH 7.4, 0.240 mM GSNO, 0.300 mM NADH, 0.5 μg/mL GSNO Reductase, 1% DMSO, 25° C.; read-out: IC50 (GSNOR inhibitor activity).
T1 construct: made in house; host or cells: E. coli (arabinose-induced)
T1 sequence (P11766 whole entry): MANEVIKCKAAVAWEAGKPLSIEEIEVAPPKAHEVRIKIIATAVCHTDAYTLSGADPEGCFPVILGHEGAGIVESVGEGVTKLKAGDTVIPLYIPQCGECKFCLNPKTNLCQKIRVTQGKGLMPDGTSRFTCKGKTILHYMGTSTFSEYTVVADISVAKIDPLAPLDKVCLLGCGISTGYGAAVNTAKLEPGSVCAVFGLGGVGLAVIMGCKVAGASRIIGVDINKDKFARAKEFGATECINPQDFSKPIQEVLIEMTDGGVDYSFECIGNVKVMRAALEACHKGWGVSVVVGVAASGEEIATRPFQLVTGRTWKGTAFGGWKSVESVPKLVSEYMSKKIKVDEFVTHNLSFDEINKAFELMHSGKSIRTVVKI
Format: biochemical
Procedure: Various compounds were tested in vitro for their ability to inhibit GSNOR activity.
GSNOR expression and purification is described in Biochemistry 2000, 39, 10720-10729.
Pre-cultures were grown from stabs of a GSNOR glycerol stock in 2XYT media containing 100 ug/ml ampicillin after an overnight incubation at 37° C. Cells were then added to fresh 2XYT (4 L) containing ampicillin and grown to an OD (A600) of 0.6-0.9 at 37° C. before induction. GSNOR expression was induced with 0.1% arabinose in an overnight incubation at 20° C.
E. coli cell paste was lysed by nitrogen cavitation and the clarified lysate purified by Ni affinity chromatography on an AKTA FPLC (Amersham Pharmacia). The column was eluted in 20 mM Tris pH 8.0/250 mM NaCl with a 0-500 mM imidazole gradient. Eluted GSNOR fractions containing the Smt-GSNOR fusion were digested overnight with Ulp-1 at 4° C. to remove the affinity tag then re-run on the Ni column under the same conditions. GSNOR was recovered in the flowthrough fraction and for crystallography is further purified by Q-Sepharose and Heparin flowthrough chromatography in 20 mM Tris pH 8.0, 1 mM DTT, 10 uM ZnSO4.
GSNO and enzyme/NADH Solutions are made up fresh each day. The solutions are filtered and allowed to warm to room temperature. GSNO solution: 100 mM NaPO4 (pH 7.4), 0.480 mM GSNO. 396 μL of GSNO Solution is added to a cuvette followed by 8 μL of test compound in DMSO (or DMSO only for full reaction control) and mixed with the pipette tip. Compounds to be tested are made up at a stock concentration of 10 mM in 100% DMSO. 2 fold serial dilutions are done in 100% DMSO. 8 μL of each dilution are added to an assay so that the final concentration of DMSO in the assay is 1%. The concentrations of compounds tested range from 100 to 0.003 μM. Enzyme/NADH solution: 100 mM NaPO4 (pH 7.4), 0.600 mM NADH, 1.0 μg/mL GSNO Reductase. 396 μL of the Enzyme/NADH solution is added to the cuvette to start the reaction. The cuvette is placed in the Cary 3E UV/Visible Spectrophotometer and the change in 340 nm absorbance/min at 25° C. is recorded for 3 minutes. The assays are done in triplicate for each compound concentration. IC50's for each compound are calculated using the standard curve analysis in the Enzyme Kinetics Module of SigmaPlot.
Final assay conditions: 100 mM NaPO4, pH 7.4, 0.240 mM GSNO, 0.300 mM NADH, 0.5 μg/mL GSNO Reductase, and 1% DMSO. Final volume: 800 μL/cuvette.

IC50, < 1 µM:
Cc1cc(C(N)=O)ccc1-c1c(-c2ccc(Br)cc2)csc1CCC(=O)O [Example 13, 3-(4-(4-bromophenyl)-3-(4-carbamoyl-2-methylphenyl)thiophen-2-yl)propanoic acid]
COc1cc(Cl)ccc1-c1csc(CCC(=O)O)c1-c1ccc(C(N)=O)cc1 [Example 2, 3-(3-(4-carbamoylphenyl)-4-(4-chloro-2-methoxyphenyl)thiophen-2-yl)propanoic acid]
COc1ccc(-c2scc(CCC(=O)O)c2-c2ccc(C(N)=O)cc2C)cc1 [Example 14, 3-(4-(4-carbamoyl-2-methylphenyl)-5-(4-methoxyphenyl)thiophen-3-yl)propanoic acid]
Cc1nccn1-c1ccc(-c2csc(CCC(=O)O)c2-c2ccc(C(N)=O)cc2)cc1 [Example 8, 3-(3-(4-carbamoylphenyl)-4-(4-(2-methyl-1H-imidazol-1-yl)phenyl)thiophen-2-yl)propanoic acid]
COc1ccc(-c2csc(CCC(=O)O)c2-c2ccc(C(N)=O)cc2C)cc1 [Example 1, 3-(3-(4-carbamoyl-2-methylphenyl)-4-(4-methoxyphenyl)thiophen-2-yl)propanoic acid]
Cc1cc(NS(C)(=O)=O)ccc1-c1c(-c2ccc(-n3ccnc3C)s2)csc1CCC(=O)O [Example 12, 3-(5-(2-methyl-1H-imidazol-1-yl)-4′-(2-methyl-4-(methylsulfonamido)phenyl)-2,3′-bithiophen-5′-yl)propanoic acid]
COc1cc(Cl)ccc1-c1csc(CCC(=O)O)c1-c1ccc(O)cc1 [Example 4, 3-(4-(4-chloro-2-methoxyphenyl)-3-(4-hydroxyphenyl)thiophen-2-yl)propanoic acid]
Cc1cc(C(N)=O)ccc1-c1c(-c2ccc(-n3ccnc3C)cc2)csc1CCC(=O)O [Example 7, 3-(3-(4-carbamoyl-2-methylphenyl)-4-(4-(2-methyl-1H-imidazol-1-yl)phenyl)thiophen-2-yl)propanoic acid]
Cc1cc(NS(C)(=O)=O)ccc1-c1c(-c2ccc(-n3ccnc3C)cc2)csc1CCC(=O)O [Example 9, 3-(4-(4-(2-methyl-1H-imidazol-1-yl)phenyl)-3-(2-methyl-4-(methylsulfonamido)phenyl)thiophen-2-yl)propanoic acid]
Cc1cc(C(N)=O)ccc1-c1c(-c2ccc(-n3ccnc3C)s2)csc1CCC(=O)O [Example 11, 3-(4′-(4-carbamoyl-2-methylphenyl)-5-(2-methyl-1H-imidazol-1-yl)-2,3′-bithiophen-5′-yl)propanoic acid]
